SMILES strings stand for the structures.

In the assay the target is T1, BCL6::BCOR (Homo sapiens, UniProt P41182, C67R/C84N/C8Q).
T1 construct: BCL6 (amino acids 5 to 129, with the following changes to the natural protein); made in house; host or cells: E. coli
The experiment in a line: BCL6::BCOR ULight TR-FRET assay. Format: binding. The source says:
Biological Methods BCL6::BCOR ULight TR-FRET Assay:
Biotinylated BCL6 protein corresponding to BCL6 (amino acids 5 to 129, with the following changes to the natural protein: C8Q, C67R, C84N) is expressed in E. coli with a carboxy-terminal Avi tag (amino acid sequence […]). The BCOR ULight peptide uses a direct carboxy-terminal ULight tag (PerkinElmer). The sequence of the peptide is CRSEIISTAPSSWVVPGP, with the amino terminus acetylated and the ULight tag attached to the cysteine. Compounds are dispensed onto assay plates (Proxiplate 384 PLUS, white, PerkinElmer) using an Access Labcyte Workstation with the Labcyte Echo 55×from a DMSO solution. For the chosen highest assay concentration of 100 μM, 150 nl of compound solution are transferred from a 10 mM DMSO compound stock solution. A series of 11 concentrations is transferred for each compound at which each concentration is fivefold lower than the previous one. DMSO is added such that every well has a total of 150 nl compound solution. 5 μL of 1 nM BCL6 protein in assay buffer (50 mM HEPES pH 7.3; 125 mM NaCl; 1 mM GSH; 0.01% Triton-X 100; 0.03% BSA) are added to the 150 nl of compounds. After 30 minutes incubation time at room temperature, 10 μL of a mix containing BCOR ULight peptide (100 nM final assay concentration) and Streptavidin-Europium (0.75 nM final assay concentration) are added. Plates are kept at room temperature. After 240 minutes incubation time the TR-FRET signal is measured in a PerkinElmer Envision HTS Multilabel Reader using the TR-FRET LANCE Ultra specs of PerkinElmer. Each plate contains negative controls (diluted DMSO instead of test compound; BCOR peptide and Streptavidin Europium mix with BCL6 protein) and positive controls (diluted DMSO instead of test compound; BCOR peptide and Streptavidin-Europium mix without BCL6 protein). Negative and positive control values are used for normalization.
On the technique in general: TR-FRET usually uses a lanthanide donor and a delayed reading to cut background.
A word on the IC50: it is the concentration needed to halve the response being measured. `CNC(=O)COc1cc2cc(Nc3nc(N4CCC(N5CCC(C)CC5)CC4)ncc3Cl)ccc2n(C)c1=O` [Compound I-40]: the IC50 worked out at 9 nM.

On to `CNC(=O)COc1cc2cc(Nc3nc(N4CCC(N5CCCC5)CC4)ncc3Cl)ccc2n(C)c1=O` [Compound I-41], for which the IC50 turned out to be 8 nM.

In turn, `CNC(=O)COc1cc2cc(Nc3nc(N4CCC(N5CCCCC5)CC4)ncc3Cl)ccc2n(C)c1=O` [Compound I-42] gave an IC50 of 9 nM.

`CNC(=O)COc1cc2cc(Nc3nc(N4CCC(CCN5CCCCC5)CC4)ncc3Cl)ccc2n(C)c1=O` [Compound I-43] yielded an IC50 of 6 nM.

On to `CNC(=O)COc1cc2cc(Nc3nc(N4CCC(CN5CCOCC5)CC4)ncc3Cl)ccc2n(C)c1=O` [Compound I-44], for which the IC50 is 9 nM.

For the compound `CNC(=O)COc1cc2cc(Nc3nc(N4CCC(N(C)C)CC4)ncc3Cl)ccc2n(C)c1=O` [Compound I-45], half-maximal inhibition (IC50) was put at 7 nM.

`CNC(=O)COc1cc2cc(Nc3nc(N4CCCN(C)CC4)ncc3Cl)ccc2n(C)c1=O` [Compound I-46] yielded an IC50 of 13 nM.

Compound `CNC(=O)COc1cc2cc(Nc3nc(N4CCc5cnccc5C4)ncc3Cl)ccc2n(C)c1=O` [Compound I-47] returned an IC50 of 5 nM.

Compound `CNC(=O)COc1cc2cc(Nc3nc(N4C[C@@H](C)N(C)[C@@H](C)C4)ncc3Cl)ccc2n(C)c1=O` [Compound I-48] returned an IC50 of 11 nM.

In the case of `CNC(=O)COc1cc2cc(Nc3nc(N4CCN(C)C(C)(C)C4)ncc3Cl)ccc2n(C)c1=O` [Compound I-49], 11 nM corresponded to half-maximal inhibition (IC50).

Compound `CNC(=O)COc1cc2cc(Nc3nc(N4CCOC(C)(C)C4)ncc3Cl)ccc2n(C)c1=O` [Compound I-50] gave an IC50 of 5 nM.

`CNC(=O)COc1cc2cc(Nc3nc(N4CCO[C@@H](C)C4)ncc3Cl)ccc2n(C)c1=O` [Compound I-51] displayed an IC50 of 6 nM.

`CNC(=O)COc1cc2cc(Nc3nc(N4CCO[C@H](C)C4)ncc3Cl)ccc2n(C)c1=O` [Compound I-52] displayed an IC50 of 7 nM.

The compound `CNC(=O)COc1cc2cc(Nc3nc(N4C[C@@H](C)O[C@@H](C)C4)ncc3Cl)ccc2n(C)c1=O` [Compound I-53] showed an IC50 of 6 nM.

The compound `CNC(=O)COc1cc2cc(Nc3nc(N4CCOCC4)ncc3Cl)ccc2n(C)c1=O` [Compound I-54] displayed an IC50 of 5 nM.

The compound `CNC(=O)COc1cc2cc(Nc3nc(N4CCCC(F)CC4)ncc3Cl)ccc2n(C)c1=O` (stereo not drawn) [Compound I-55] gave a half-inhibitory concentration (IC50) of 5 nM.

The compound `CNC(=O)COc1cc2cc(Nc3nc(N4CCC(C(C)(C)C(=O)O)CC4)ncc3Cl)ccc2n(C)c1=O` [Compound I-56] showed an IC50 of 4 nM.

`CNC(=O)COc1cc2cc(Nc3nc(N4CCC(N5C[C@H]6CC[C@@H](C5)O6)CC4)ncc3Cl)ccc2n(C)c1=O` [Compound I-57] gave an IC50 of 6 nM.

`CNC(=O)COc1cc2cc(Nc3nc(N4CCC(N(C)CC(F)(F)F)CC4)ncc3Cl)ccc2n(C)c1=O` [Compound I-58] displayed an IC50 of 7 nM.

For `CNC(=O)COc1cc2cc(Nc3nc(N4CCC(N5CC6CCC5CC6)CC4)ncc3Cl)ccc2n(C)c1=O` [Compound I-59], the IC50 was found to be 11 nM.

In turn, `CNC(=O)COc1cc2cc(Nc3nc(N4CC5CC4CC5(F)F)ncc3Cl)ccc2n(C)c1=O` (stereo not drawn) [Compound I-60] came in with an IC50 of 6 nM. This IC50 is about 1.8-fold lower than that of the compound before.

`CNC(=O)COc1cc2cc(Nc3nc(N4CCN(CC(=O)O)C(=O)C4)ncc3Cl)ccc2n(C)c1=O` [Compound I-61] yielded an IC50 of 4 nM. This IC50 lies about 1.5-fold lower than the previous one.

On to `CNC(=O)COc1cc2cc(Nc3nc(N4CCC(C(=O)O)CC4)ncc3Cl)ccc2n(C)c1=O` [Compound I-62], for which inhibition was half-maximal at 4 nM (IC50).

`CNC(=O)COc1cc2cc(Nc3nc(N4CCN(CC(=O)O)CC4)ncc3Cl)ccc2n(C)c1=O` [Compound I-63]: 8 nM corresponded to half-maximal inhibition (IC50).

Regarding `CNC(=O)COc1cc2cc(Nc3nc(N4C[C@H](F)C[C@@H](F)C4)ncc3Cl)ccc2n(C)c1=O` [Compound I-64], it took 9 nM to reach half-maximal inhibition (IC50).

`CNC(=O)COc1cc2cc(Nc3nc(N4C[C@H](F)C[C@H](F)C4)ncc3Cl)ccc2n(C)c1=O` [Compound I-65] had an IC50 of 23 nM.

Take `CNC(=O)COc1cc2cc(Nc3nc(N4CCC[C@H](C)C4)ncc3Cl)ccc2n(C)c1=O` [Compound I-66]: the IC50 came to 5 nM.

`CNC(=O)COc1cc2cc(Nc3nc(N4CCc5cn[nH]c5C4)ncc3Cl)ccc2n(C)c1=O` [Compound I-67] gave an IC50 of 5 nM.

In turn, `CNC(=O)COc1cc2cc(Nc3nc(N4CCc5cnn(C)c5C4)ncc3Cl)ccc2n(C)c1=O` [Compound I-68] came in with an IC50 of 7 nM. The IC50 values of the last two compounds are within 1.5-fold of each other.

As to `CNC(=O)COc1cc2cc(Nc3nc(N4CCCC(C)(C#N)C4)ncc3Cl)ccc2n(C)c1=O` (stereo not drawn) [Compound I-69], the midpoint of inhibition, the IC50, lay at 23 nM.

Regarding `CNC(=O)COc1cc2cc(Nc3nc(N4CCC[C@@H](C)C4)ncc3Cl)ccc2n(C)c1=O` [Compound I-70], the IC50 was 7 nM.

Take `CNC(=O)COc1cc2cc(Nc3nc(N4CCCC(C)(C)C4)ncc3Cl)ccc2n(C)c1=O` [Compound I-71]: the IC50 amounted to 9 nM.

`CNC(=O)COc1cc2cc(Nc3nc(N4CC5CCCC5C4)ncc3Cl)ccc2n(C)c1=O` (stereo not drawn) [Compound I-72]: the IC50 came out at 9 nM.

With `CCn1c(=O)c(OCC(=O)NC)cc2cc(Nc3nc(N4CCC(C(=O)O)CC4)ncc3Cl)ccc21` [Compound I-73], the IC50 is 4 nM.

`CCn1c(=O)c(OCC(=O)NC)cc2cc(Nc3nc(N4C[C@H](C)C[C@H](C)C4)ncc3Cl)ccc21` [Compound I-74]: the IC50 is 5 nM.

Turning to `CCn1c(=O)c(OCC(=O)NC)cc2cc(Nc3nc(N4CCC(F)CC4)ncc3Cl)ccc21` [Compound I-75], the IC50 was found to be 5 nM.

Consider `CCn1c(=O)c(OCC(=O)NC)cc2cc(Nc3nc(N4CCC(F)(F)CC4)ncc3Cl)ccc21` [Compound I-76], for which the half-inhibitory concentration (IC50) was found to be 5 nM.

Consider `CCn1c(=O)c(OCC(=O)NC)cc2cc(Nc3nc(N4CCC[C@@H](C)C4)ncc3Cl)ccc21` [Compound I-77], for which the IC50 was found to be 8 nM. Against the preceding compound, the IC50 is about 1.6-fold higher.

`CCCn1c(=O)c(OCC(=O)NC)cc2cc(Nc3nc(N4CCC(C(=O)O)CC4)ncc3Cl)ccc21` [Compound I-78] displayed a concentration for half-maximal inhibition (IC50) of 4 nM.

In the case of `CCCn1c(=O)c(OCC(=O)NC)cc2cc(Nc3nc(N4C[C@H](C)C[C@H](C)C4)ncc3Cl)ccc21` [Compound I-79], half-maximal inhibition (IC50) required 11 nM.

On to `CCCn1c(=O)c(OCC(=O)NC)cc2cc(Nc3nc(N4CCC(F)CC4)ncc3Cl)ccc21` [Compound I-80], for which the IC50 was found to be 7 nM.

On to `CCCn1c(=O)c(OCC(=O)NC)cc2cc(Nc3nc(N4CCC(F)(F)CC4)ncc3Cl)ccc21` [Compound I-81], for which the IC50 was found to be 7 nM.

Take `CNC(=O)COc1cc2cc(Nc3nc(N4CCC(C(=O)O)CC4)ncc3Cl)ccc2n(C(C)C)c1=O` [Compound I-82]: the midpoint of inhibition, the IC50, lay at 4 nM.

`CNC(=O)COc1cc2cc(Nc3nc(N4C[C@H](C)C[C@H](C)C4)ncc3Cl)ccc2n(C(C)C)c1=O` [Compound I-83] gave an IC50 of 12 nM.

As for `CNC(=O)COc1cc2cc(Nc3nc(N4CCC(F)CC4)ncc3Cl)ccc2n(C(C)C)c1=O` [Compound I-84], the IC50 was 10 nM.

In turn, `CNC(=O)COc1cc2cc(Nc3nc(N4CCC(F)(F)CC4)ncc3Cl)ccc2n(C(C)C)c1=O` [Compound I-85] displayed an IC50 of 9 nM.

Compound `CNC(=O)COc1cc2cc(Nc3nc(N4CCC(C(=O)O)CC4)ncc3Cl)ccc2n(CC2CC2)c1=O` [Compound I-86] gave an IC50 of 3 nM.

Consider `CNC(=O)COc1cc2cc(Nc3nc(N4C[C@H](C)C[C@H](C)C4)ncc3Cl)ccc2n(CC2CC2)c1=O` [Compound I-87], for which the concentration for half-maximal inhibition (IC50) turned out to be 15 nM.

The compound `CNC(=O)COc1cc2cc(Nc3nc(N4CCC(F)CC4)ncc3Cl)ccc2n(CC2CC2)c1=O` [Compound I-88] registered an IC50 of 6 nM.

`CNC(=O)COc1cc2cc(Nc3nc(N4CCC(F)(F)CC4)ncc3Cl)ccc2n(CC2CC2)c1=O` [Compound I-89]: the IC50 came out at 8 nM. The IC50 values of the last two compounds are within 1.5-fold of each other.

Compound `CNC(=O)COc1cc2cc(Nc3nc(N4CCC(C(=O)N5CCN(C)CC5)CC4)ncc3Cl)ccc2n(C)c1=O` [Compound I-90] came in with an IC50 of 7 nM.

Compound `CNC(=O)COc1cc2cc(Nc3nc(N4CCN(CCC(=O)O)CC4)ncc3Cl)ccc2n(C)c1=O` [Compound I-91] gave an IC50 of 7 nM.

Compound `CNC(=O)COc1cc2cc(Nc3nc(N4CCN(CCC(=O)O)C(=O)C4)ncc3Cl)ccc2n(C)c1=O` [Compound I-92] gave an IC50 of 5 nM.

`CNC(=O)COc1cc2cc(Nc3nc(N4CCC(CC(=O)O)CC4)ncc3Cl)ccc2n(C)c1=O` [Compound I-93]: the IC50 is 4 nM.

In turn, `CNC(=O)COc1cc2cc(Nc3nc(N4CCC(C(=O)O)CC4)ncc3Cl)cc(OC)c2n(C)c1=O` [Compound I-94] gave an IC50 of 2 nM. This IC50 lies about 2-fold lower than the previous one.

Regarding `CNC(=O)COc1cc2cc(Nc3nc(N4CCC[C@@H](C(=O)O)C4)ncc3Cl)cc(OC)c2n(C)c1=O` [Compound I-95], the IC50 turned out to be 2 nM.

In the case of `CNC(=O)COc1cc2cc(Nc3nc(N4CCC[C@H](C(=O)O)C4)ncc3Cl)cc(OC)c2n(C)c1=O` [Compound I-96], the IC50 turned out to be 2 nM.

The values are drawn from patent US11001570B2, “6-amino-quinolinone compounds and derivatives as BCL6 inhibitors” (Boehringer Ingelheim International GmbH, priority 2016, dated 2021).
